In brackets after ≈: the same amount, converted by molar mass. Entries after “also recorded” stand apart in the source; their conditions may differ.
Legend:
certain parasites = details: background; cited from earlier work
[1] = background; cited from earlier work
Leishmania donovani = experiment: In vitro antiparasitic activity against Leishmania donovani; format: cell-based; details: for IC50: Leishmania donovani, 120 h, 5 days at 26° C., read-out: ED50 (the source's name)
Method: (§1) The antiparasitic activities of the 1-(5'-0-sulfamoyl-β-D-ribofuranosyl)[1,2,4]triazolo 3-carboxamide, 3-thiocarboxamide and 3-carbonitrile compounds of the invention are shown in various in vitro and in vivo systems. […] These are representative of the protozoan diseases: leishmaniasis, trypanosomiasis, giardiasis and trichomoniasis.
(§2) Leishmania donovani (ATCC #30142)) and Trypanosoma qambiense (TH114, obtained from R. Brun, Schweizer Tropeninstitut, Basel, Switzerland) were grown in THOSMEM, HOSMEM and PPDM-79 media respectively as described in J. J. Marr, R. L. Berens and D. J. Nelson, J. Science. 202, 1018 (1978), J. J. Marr, D. J. Nelson and R. L. Berens, Biochim. Biophys. Acta, 544, 360 (1978) and W. R. Fish, J. J. Marr and R. L. Berens, Biochim. Biophys. Acta, 714, 422 (1982). For drug sensitivity studies these organisms were grown in 10 ml of their respective media in 25 cm^2 tissue culture flasks. Cultures were inoculated to a cell density of […] and incubated for 5 days at 26° C. in a 5% CO2 atmosphere. Final cell density was determined by counting the cells on a Coulter Counter (Model ZBI); control cultures reached a final density of ≈2·10^7 /ml.
(§3) Drug stock solutions were prepared by dissolving the compounds of the invention in 0.1N NaOH and adjusting the final concentration to 2 mg/ml based on extinction coefficient. Drug was added to respective culture media (<2% v/v) and the media filter sterilized. Doses effective against 50% (ED50) and 90% (ED90) were determined by triplicate counting of organisms exposed to various drug concentrations and determining a mean value. Results were expressed as a percentage control.

Trypanosoma gambiense = experiment: In vitro antiparasitic activity against Trypanosoma gambiense; format: cell-based; details: for IC50: Trypanosoma brucei, GAMBIENSE, 120 h, 5 days at 26° C., read-out: ED50 (the source's name)
Method: as §1, §2, §3

Giardia lamblia = experiment: In vitro antiparasitic activity against Giardia lamblia; format: cell-based; details: for IC50: Giardia duodenalis, 72 h, 3 days at 37° C., read-out: ED50 (the source's name); for relative activity against G. lamblia (in words): compared with compound 2
Method: as §1
(§4) Giardia lamblia (PI, ATCC #30888) and Trichomonas vaqinalis (ATCC #3301) were grown in modified TYI medium in 13×100 mm screw cap tubes as described in R. L. Berens and J. J. Marr, Biochem. Pharm., 35, 4191 (1986). Cultures were inoculated at a density of 10^4 and incubated for 3 days at 37° C.; control cultures reached densities of ≈1-2·10^6 for G. lamblia and ≈6-7·10^6 for T. vaqinalis. These parasites were counted by chilling tubes on ice for 30 min., then reading the optical density at 650 nm in a Gilford 300-N micro-sample spectrophotometer. Their cell number was obtained by comparing the absorbance to a standard curve constructed from numbers obtained by counting cells in a hemocytometer.
as §3

Trichomonas vaginalis = experiment: In vitro antiparasitic activity against Trichomonas vaginalis; format: cell-based; details: for IC50: Trichomonas vaginalis, 72 h, 3 days at 37° C., read-out: ED50 (the source's name)
Method: as §1, §4, §3

Toxicity to U937 cells = format: cell-based; details: human, u937 cells; @ 1μg/ml; read-out: % Control (U937 cells)
U937 cells = experiment: Toxicity to U937 cells; format: cell-based; details: 1μg/ml
T. brucei EATRO 110 = experiment: Antiparasitic activity against T. brucei EATRO 110 in animals (mouse model); format: in vivo, Trypanosoma brucei; details: mice; for % Cured / Average Survival / Range of Survival: once daily for 3 days
Method: Antiparasitic activity of the compounds of the invention in animals against T. brucei EATRO 110 was determined as described in C. J. Bacchi, R. L. Berens, H. C. Nathan, R. S. Klein, I. A. Elegbe, K. V. Rao, P. P. McCann and J. J. Marr, Antimicrob: Agents Chemother., 31, 1403 (1987) utilizing the mouse model described therein.
Mice (groups of 5) were infected with 2 × 10^5 trypanosomes and
treatment commenced 24 h post inoculation. Drugs were given once daily by
the route indicated for 3 days.

L. donovani = experiment: Antileishmanial activity in animals (mouse model of visceral leishmaniasis); format: in vivo, Leishmania donovani; details: mice; for LDUs in Liver / Suppression (%): one week
Method: Antiparasitic activity of the compounds of the invention in animals against L. donovani was determined in a manner similar to that previously described J. S. Keithly and S. G. Langreth, Amer. J. Trop. Med. Hyg., 32, 485 (1983) for a hamster model. Briefly, mice were infected with 5×10^7 stationary phase promastigotes subcultured in Schneider's drosophila medium with 15% heat inactivated fetal bovine serum. The compounds of the invention were administered by gavage nine days after infection and continued for one week. Positive controls received Pentostam intraperitoneally. Infected, untreated controls received water orally but no intraperitoneal sham injections. Mice were necropsied sixteen days after infection (seven days after the beginning of drug treatment).
% Suppression = 100 100(LDUs of experimental/LDUs of control)

[2] = test system: Leishmania donovani, Trypanosoma qambiense, Giardia lamblia and Trichomonas vaqinalis; experiment: In vitro antiparasitic activity against various pathogens (overall); format: cell-based; details: compounds 2, 3 and 4 compared
Method: as §1
Leishmania donovani (ATCC #30142)) and Trypanosoma qambiense (TH114, obtained from R. Brun, Schweizer Tropeninstitut, Basel, Switzerland) were grown in THOSMEM, HOSMEM and PPDM-79 media respectively as described in J. J. Marr, R. L. Berens and D. J. Nelson, J. Science. 202, 1018 (1978), J. J. Marr, D. J. Nelson and R. L. Berens, Biochim. Biophys. […] Final cell density was determined by counting the cells on a Coulter Counter (Model ZBI); control cultures reached a final density of ≈2·10^7 /ml.
as §4, with “Cultures were inoculated at a density of 10^4 and incubated for 3 days at 37° C.; control cultures reached densities of ≈1-2·10^6 for G. lamblia and ≈6-7·10^6 for T. vaqinalis.” left out, “hemocytometer. […]” for “hemocytometer.”

adenosine kinase = details: certain human cell lines in-vitro; cited from earlier work
[3] = background; cited from earlier work; remark: listed apart in the source

Nc1ncnc2c1ncn2[C@@H]1O[C@H](COS(N)(=O)=O)[C@@H](O)[C@H]1O [5'-O-sulfamoyl adenosine]
antiparasitic activity (in words) (certain parasites): active in-vitro against certain parasites
toxicity (in words) [1]: extremely toxic

NC(=O)c1ncn([C@@H]2O[C@H](COS(N)(=O)=O)[C@@H](O)[C@H]2O)n1 [Compound 2, 1-(5'-O-Sulfamoyl-β-D-ribofuranosyl)[1,2,4]triazole-3-carboxamide]
antileishmanial activity in vitro (in words) (Leishmania donovani): significant activity as an antileishmanial agent
IC50 (Leishmania donovani): 0.03 µg/mL (≈ 0.0928 µM)
activity against T. gambiense (in words) (Trypanosoma gambiense): shows antitrypanosomal activity; also recorded: killed by low concentrations
IC50 (Trypanosoma gambiense): 0.01 to 0.05 µg/mL (≈ 0.0309 to 0.155 µM)
IC50 (Giardia lamblia): 5 to 10 µg/mL (≈ 15.5 to 30.9 µM)
IC50 (Trichomonas vaginalis): > 25 µg/mL
viability (Toxicity to U937 cells): 10%
toxicity to U937 cells (in words) (U937 cells): toxic
% Cured (T. brucei EATRO 110; 1 mg/kg (i.p.)): 0%
Average Survival (T. brucei EATRO 110; 1 mg/kg (i.p.)): 4.6 days
Range of Survival (T. brucei EATRO 110; 1 mg/kg (i.p.)): 4 to 5 days
% Cured (T. brucei EATRO 110; 5 mg/kg (i.p.)): 0%
Average Survival (T. brucei EATRO 110; 5 mg/kg (i.p.)): 4.8 days
Range of Survival (T. brucei EATRO 110; 5 mg/kg (i.p.)): 4 to 6 days
% Cured (T. brucei EATRO 110; 10 mg/kg (i.p.)): 0%
Average Survival (T. brucei EATRO 110; 10 mg/kg (i.p.)): 7.4 days
Range of Survival (T. brucei EATRO 110; 10 mg/kg (i.p.)): 4 to 11 days
% Cured (T. brucei EATRO 110; 20 mg/kg (i.p.)): 0%
Average Survival (T. brucei EATRO 110; 20 mg/kg (i.p.)): 7.4 days
Range of Survival (T. brucei EATRO 110; 20 mg/kg (i.p.)): 4 to 11 days
% Cured (T. brucei EATRO 110; 50 mg/kg (i.p.)): 0%
Average Survival (T. brucei EATRO 110; 50 mg/kg (i.p.)): 6.4 days
Range of Survival (T. brucei EATRO 110; 50 mg/kg (i.p.)): 4 to 10 days
% Cured (T. brucei EATRO 110; 50 mg/kg (i.v.)): 0%
Average Survival (T. brucei EATRO 110; 50 mg/kg (i.v.)): 6.4 days
Range of Survival (T. brucei EATRO 110; 50 mg/kg (i.v.)): 4 to 12 days
% Cured (T. brucei EATRO 110; 50 mg/kg (p.o.)): 0%
Average Survival (T. brucei EATRO 110; 50 mg/kg (p.o.)): 11.6 days
Range of Survival (T. brucei EATRO 110; 50 mg/kg (p.o.)): 10 to 14 days
activity against T. brucei in animals (in words) (T. brucei EATRO 110; i.p., i.v., oral): exhibits this activity when administered orally; also recorded: shows intraperitoneal, intravenous and oral activity; also recorded: oral activity of compound 2 is greater than intraperitoneal activity; also recorded: prolonged survival at all dosages tested
LDUs in Liver (L. donovani; 10 mg/kg/day, gavage): 1244 ± 469 LDUs
Suppression (%) (L. donovani; 10 mg/kg/day, gavage): 18%
LDUs in Liver (L. donovani; 20 mg/kg/day, gavage): 765 ± 133 LDUs
Suppression (%) (L. donovani; 20 mg/kg/day, gavage): 50%
LDUs in Liver (L. donovani; 50 mg/kg/day, gavage): 501 ± 276 LDUs
Suppression (%) (L. donovani; 50 mg/kg/day, gavage): 67%
antileishmanial activity in animals (in words) (L. donovani; compared with Pentostam): good suppression of the parasites in the livers; also recorded: response equivalent to that of optimized Pentostam; also recorded: as active as Pentostam; also recorded: as active as pentavalent antimony
relative antiparasitic activity in vitro (in words) [2]: the most active and had the lowest ED50 against these organisms

NC(=S)c1ncn([C@@H]2O[C@H](COS(N)(=O)=O)[C@@H](O)[C@H]2O)n1 [Compound 3, 1-(5'-O-Sulfamoyl-β-D-ribofuranosyl)[1,2,4]triazole-3-thiocarboxamide]
IC50 (Leishmania donovani): 2.5 µg/mL (≈ 7.37 µM)
IC50 (Trypanosoma gambiense): 0.5 µg/mL (≈ 1.47 µM)
IC50 (Giardia lamblia): > 25 µg/mL
relative activity against G. lamblia (in words) (Giardia lamblia): about the same as for compound 2
IC50 (Trichomonas vaginalis): 15 µg/mL (≈ 44.2 µM)
relative activity against T. vaginalis (in words) (Trichomonas vaginalis; compared with compounds 2 or 4): greater activity; also recorded: greater activity than compounds 2 or 4

N#Cc1ncn([C@@H]2O[C@H](COS(N)(=O)=O)[C@@H](O)[C@H]2O)n1 [Compound 4, 1-(5'-0-Sulfamoyl-β-D-ribofuranosyl)[1,2,4]triazole-3-carbonitrile]
IC50 (Leishmania donovani): 1 to 5 µg/mL (≈ 3.28 to 16.4 µM)
IC50 (Trypanosoma gambiense): 1 to 5 µg/mL (≈ 3.28 to 16.4 µM)
IC50 (Giardia lamblia): > 25 µg/mL
relative activity against G. lamblia (in words) (Giardia lamblia): about the same as for compound 2
IC50 (Trichomonas vaginalis): > 25 µg/mL

O.O.O.O.O.O.O.O.O.O=C([O-])[C@@H]1[O][Sb](=[O])([O][Sb]2(=[O])[O][C@H]([C@H](O)CO)[C@H](O)[C@H](C(=O)[O-])[O]2)[O][C@H]([C@H](O)CO)[C@@H]1O.[Na+].[Na+].[Na+] (stereo partly drawn) [Pentostam, reference compound]
LDUs in Liver (L. donovani; 50 mg/kg/day, intraperitoneal): 411 ± 245 LDUs
Suppression (%) (L. donovani; 50 mg/kg/day, intraperitoneal): 73%

NC(=O)c1ncn([C@@H]2O[C@H](CO)[C@@H](O)[C@H]2O)n1 [Ribavirin, 1-(β-D-Ribofuranosyl)[1,2,4]triazole-3-carboxamide]
antiparasitic activity (in words) (certain parasites): does not have antiparasitic activity
toxicity (in words) [1]: relatively non-toxic
substrate for adenosine kinase (in words) (adenosine kinase): substrate for adenosine kinase
antiviral activity (in words) [3]: broad spectrum antiviral agent
